The record followed here is patent EP4000613A1, “PHARMACEUTICAL COMBINATIONS COMPRISING A PEPTIDE CXCR4 INHIBITOR AND A TAXANE FOR TREATING CANCER” (Polyphor AG, priority 2020, dated 2022).

Experiment [1] concerns other potential target receptors. The experiment can be described thus: In vitro receptor binding studies (other receptors). An excerpt:
(§1) In a particular preferred embodiment the peptidic CXCR4 inhibitor is cyclo(-Tyr-His-Ala-Cys-Ser-Ala-^DPro-Dab-Arg-Tyr-Cys-Tyr-Gln-Lys-^DPro-Pro-) having a disulfide bond between Cys^4 and Cys^11, or pharmaceutically acceptable sals thereof. Cyclo(-Tyr-His-Ala-Cys-Ser-Ala-^DPro-Dab-Arg-Tyr-Cys-Tyr-Gln-Lys-^DPro-Pro-) having a disulfide bond between Cys^4 and Cys^11 is also referred as POL6326 herein or balixafortide. POL6326 is a cyclic synthetic peptide consisting of 16 amino acids and an antagonist of the highly conserved chemokine receptor CXCR4.

Experiment [2] has as its system breast cancer PDX Ma15169. The experiment in a line: Tumor growth of breast cancer PDX Ma15169 in humanized NOG-EXL mice. Format: in vivo. The conditions noted are these: for rating according to RECIST criteria: based on T/C at last day of the study (day 183); for T/C value: last day of the study (day 183), tumor volume treated-to-control. The method, then: The study was designed to determine the response of the breast cancer PDX Ma15169 to treatment with Paclitaxel single agent, Balixafortide single agent and the combination of both in humanized NOG-EXL mice. Humanized NOG-EXL mice bearing the breast cancer PDX Ma15169 were treated with Paclitaxel and Balixafortide according to Table 1. Ma15169 is a patient derived xenograft (PDX) that was from a patient with an invasive ductal carcinoma (ypT1a ypNla R0 G3 L1 V1). The patient tumour was ER/PR as well as Her-2 negative. The tumour material was expanded in 9 donor mice (NOG, Taconic; https://www.taconic.com/mouse-model/ciea-nog-mouse) and fragments of about 10mm3 were each implanted subcutaneously into the flank of 50 humanized NOG-EXL mice; at this time, the passage number of Ma15169 was #4. Table 1: Course of events during the study
Female NOG-EXL mice with an age of about 4 weeks were used for the constitution of human immune cells. 24 hours before CD34+ cell inoculation mice were irradiated with 1Gy. Human CD34+ cells were isolated from fresh cord blood within the laboratories of EPO (Experimental Pharmacology & Oncology Berlin-Buch GmbH, Berlin-Buch, Germany) and preserved in liquid nitrogen until use. For the study MV16883 a pool of 5 different donors (CB AG 101, CB AG 97, CB KR 104, CB AG 106, CB AG 107) prepared. After thawing the cells were washed with PBS, pooled and washed again followed by Trypan blue staining and cell counting using Neubauer chamber. A total of 5x10^4 vital cells were resuspended in 200µl PBS and injected intravenously into the tail vain of all mice.
Determination of human immune cells by FACS was performed at days 46, 84 and 115 after cell inoculation (leucocytes CD45+, B cells CD19+, T cells CD3+, NK cells CD56+/CD16+ and monocytes CD14+; Human Immunophenotyping 8-color-Kit (Miltenyi)). The mice were weighed weekly and monitored for general health two times weekly.
The PDX Ma15169 is maintained by EPO (Experimental Pharmacology & Oncology Berlin-Buch GmbH, Berlin-Buch, Germany) as in vivo passage; the passage number for this study was #4. Donor mice (female NOG; Taconic) with tumors of about 1cm3 were used for the preparation of this study MV16883.
After removal of the tumor tissue from donor mice, the tumors were cut into fragments (2-3 mm diameter - approximately 10mm3) and placed in cooled RPMI 1640 culture medium until s.c. implantation within 30 minutes. The humanized NOG-EXL mice were anaesthetized with Etomidate and received a small incision in the skin of the left flank. The tumor fragments (one fragment/mouse) were implanted with tweezers and the incision closed with a suture clip (#310417, Covetrus GmbH). The clips were removed after seven days and mice controlled two times weekly by means of palpation. The implantation of tumor fragments was performed 122 days after the inoculation of CD34+ cells.
Tumor bearing mice were stratified into 4 treatment groups according to their tumor volumes at day 154 post CD34+ cell inoculation (32 days after tumor implantation). […] During stratification the animals were individually marked by earmarks.
Paclitaxel (Taxomedac™ comprising paclictaxel, citric acid, ethanol and PEG (30-50) castor oil) was given i.v. at a dose of 10 mg/kg twice weekly. Balixafortide was given s.c. at a dose of 20 mg/kg once daily for the first 5 days and twice daily for 5 days followed by treatment breaks of 2 days until the end of treatment period (Fig. 1). Total treatment duration was 29 days. […]

Another experiment has as its system human CXCR4 receptor. The experiment in a line: In vitro receptor binding studies (CXCR4).
From the text: as §1

Consider `C[C@@H]1NC(=O)[C@H](Cc2c[nH]cn2)NC(=O)[C@H](Cc2ccc(O)cc2)NC(=O)[C@@H]2CCCN2C(=O)[C@H]2CCCN2C(=O)[C@H](CCCCN)NC(=O)[C@H](CCC(N)=O)NC(=O)[C@H](Cc2ccc(O)cc2)NC(=O)[C@@H]2CSSC[C@H](NC1=O)C(=O)N[C@@H](CO)C(=O)N[C@@H](C)C(=O)N1CCC[C@@H]1C(=O)N[C@@H](CCN)C(=O)N[C@@H](CCCNC(=N)N)C(=O)N[C@@H](Cc1ccc(O)cc1)C(=O)N2` [Balixafortide, cyclo(-Tyr-His-Ala-Cys-Ser-Ala-^DPro-Dab-Arg-Tyr-Cys-Tyr-Gln-Lys-^DPro-Pro-) having a disulfide bond between Cys^4 and Cys^11], for which the “binding to other potential target receptors” value in experiment [1] is “general lack of significant binding”. Also, the “rating according to RECIST criteria” value in experiment [2] was “progressive disease”. For the same molecule, the “optimum T/C value” in experiment [2] (day 168, Balixafortide 20 mg/kg s.c., p > 0.05) is reported as 79%. Besides, in experiment [2] (Balixafortide 20 mg/kg s.c.), the T/C value is on record as 107%. For the same molecule, in the experiment on human CXCR4 receptor, the “affinity for the human CXCR4 receptor” value is listed as “significant affinity”.
In the case of `CC(=O)O[C@H]1C(=O)[C@@]2(C)[C@H]([C@H](OC(=O)c3ccccc3)[C@]3(O)C[C@H](OC(=O)[C@H](O)[C@@H](NC(=O)c4ccccc4)c4ccccc4)C(C)=C1C3(C)C)[C@]1(OC(C)=O)CO[C@@H]1C[C@@H]2O` [Paclitaxel], in experiment [2], the “rating according to RECIST criteria” value is “stable disease”. Further, the T/C value in experiment [2] (Paclitaxel 10 mg/kg i.v. twice weekly, Balixafortide 20 mg/kg s.c.) is recorded as 42%.
